Assay results published in PMC11601558, “SLC6A19 inhibition facilitates urinary neutral amino acid excretion and lowers plasma phenylalanine” (JCI Insight, 2024).
Where “and” joins values, the source holds several entries; their conditions need not be identical. Equal values may be shown once.

What was measured:
[1] = tested on: T1, SLC6A8; assay: SLC6A8 creatine transport assay; assay type: cell-based, human; conditions: for SLC6A8 transport (Fig S2 curve point): technical replicates
T1 construct: V5; expressed in transfected cells; host or cells: Flp-In T-Rex 293 cells (Thermo Fisher), tetracycline-induced
Experimental: Supplementary Materials and Methods
Flp-In T-Rex 293 cells (Thermo Fisher) were engineered to induciblyexpress either V5-tagged human SLC1A5, SLC6A8 or SLC7A5 co-expressed with myc-DDK-tagged SLC3A2. Cells expressing SLC 1A5 or SLC6A8 were maintained in either DMEM or DMEM/F12 media supplemented with 10% FBS, 100 U/mL penicillin, 100 μg/mL streptomycin, 200 μg/mL hygromycin, and 10 μg/mL blasticidin. For cells expressing SLC7A5/SLC3A2, the media was additionally supplemented with 300 μg/mL geneticin. All cell lines were maintained at 37°C and 5% CO2. For transport experiments, all cell lines were plated in poly-D-lysine-coated 96-well plates at a density of 35,000 cells/well. One day after plating, expression of SLC1A5, SLC6A8 or SLC7A5 was induced by adding tetracycline at a concentration of 1 μg/mL. Cells were induced for 24 h prior to transport assays. […]
SLC6A8 creatine transport assay
Following a 24 h induction with tetracycline, cells were washed with PBS before JNT -517 was added in 8-point concentration-response diluted in DMEM. 3-guanidinopropionic acid was used as a positive control (33)at a concentrationof 1 mM and 0.5% DMSO was used as a negative control. Cells were incubated in a cell culture incubator for 30 minutes at 37°C and 5% CO 2 before 15 mM D3-labeled creatine (CDN Isotopes) was added as a transport substrate. After a 15 min incubation at 37°C and 5% CO2, cells were washed once with PBS. Cells were lysed in H2O with 500 nM D5-labeled creatine (CDN isotopes) as an internal standard for 1 h at 37°C.
Following lysis, a standard curve of dilution of D3-creatine was added to the last row of each plate. Plates were centrifuged for 5 min and supernatant was diluted 1:2 in H 2O. Sample desalting was performed on a high throughput Agilent RapidFire-365. From the analytical injection plate, approximately 40 μL of sample was desalted through an Agilent RapidFire Cartridge Graphitic Carbon Type D (G9206A) using water with 0.1% ammo nium hydroxide as the loading mobile phase A for 3000 milliseconds at a flow rate of 1.5 mL/min. The sample was then eluted from the cartridge using 80% acetonitrile containing 0.1% ammonium hydroxide for […]
An Agilent Q -ToF 6545 was […]
used as the analyzing mass spectrometer via electrospray ionization. Capillary voltage was set to 3 kV, with a gas temperature of 350°C. Nitrogen drying gas was applied at 12 L/min with a pressure of 40 psi, and sheath gas was set to 375°C with a flow of 12 L/min. All data were collected with a positive ion polarity and stored as centroid data. Agilent MassHunter QToF was […]
used as the integration software for measuring area under the peak for both D3 -creatine and D5-creatine as the internal standard. A linear regression was used from a standard curve of D3 - creatine to calculate absolute concentration from peak area. […]
Microbeta2 microplate counter (PerkinElmer). […]

[2] = tested on: healthy volunteers; assay: Urine amino acid excretion in healthy volunteers (pharmacodynamics); assay type: in vivo, human
Experimental: The effect of JNT-517 on plasma and urine AA levels was measured using an ultra-performance liquid chromatography mass spectrometry assay following 6-aminoquinolyl-N-hydroxysuccinimidyl carbamate (AQC) derivatization. For the SAD study, plasma samples were collected on day –1 and day 1 predose, as well as 24, 48, and 72 hours after dosing. A first morning void urine sample on Days –1 and 1 predose, as well as 2 pooled urine samples 0–8 hours after and 8–24 hours after dose were also collected following study drug administration. For the MAD study, plasma samples were collected on day –1, 1, 7, and 14 predose, as well as day 14, 24 hours after dosing. A first morning void urine samples on day –1, 1, 7, and 14 as well as 2 pooled urine samples 0–8 hours and 8–24 hours after dose on days 1, 7, and 14 were also collected following JNT-517 or placebo administration. Study participants in SAD and MAD cohorts were dosed in the morning following an overnight fast of at least 8 hours and were provided the following meals in relation to dosing times: breakfast after the morning dose, lunch 4 hours after morning dose, optional snack in the afternoon 8 hours after the morning dose and after the second dose for MAD cohorts dosed BID, dinner approximately 10 hours after the morning dose and at least 2 hours after the second dose for MAD cohorts dosed BID. Predose plasma amino acids were drawn after a minimum of 8 hours fasting overnight and after-dose levels were drawn after > 1.5 hours fasting. Resulting plasma and urine amino acid concentration measurements, as well a total amino acid excretion over a time period were summarized using appropriate descriptive statistics and compared with either predose levels or placebo-dose values. Tryptophan was not included in the amino acid panel due to analytical limitations.
IC50 values for transport inhibition in cells overexpressing SLC6A19 and TMEM27 were calculated using a 4-parameter logistic regression in Collaborative Drug Discovery (CDD). Reported IC50 values are geometric means of 4–6 independent experiments. For postmortem intestinal transport assays, single outliers of quadruplicate replicates were excluded from the calculation if a signal value’s distance to the mean exceeded 35% of the signal average. The IC50 values of individual experiments were calculated with a 3- or 4-parameter logistic regression using GraphPad Prism 9. The reported IC50 value represents the geometric mean of n = 5 experiments from 3 individual donors. Statistical comparison of urinary Phe excretion in Pah^enu2 mice treated with vehicle or JN-170 was conducted using 1-way analysis of variance (ANOVA) with Tukey’s post hoc comparison. Statistical analysis of baseline-adjusted plasma Phe in mice treated with vehicle or JN-170 was determined by 2-way ANOVA with Dunnett’s post hoc comparison. All statistical analyses were performed using GraphPad Prism 9. For clinical studies, group sizes were not determined based on statistical power calculations. Statistical significance of pharmacodynamic results was not assessed. Values are reported as mean (urinary Phe excretion, T1/2, Cl/F), geometric mean (Cmax/D, AUC0-inf/D), or median (Tmax).

NC(=O)N1CCC[C@@H](N(C(=O)NCc2ccc(OC(F)(F)F)cc2F)C2CC2)C1 [JNT-517]
SLC6A8 transport (Fig S2 curve point) ([1]; 0.0160037 uM): 97.4 and 85.6 | SLC6A8 transport (Fig S2 curve point) ([1]; 0.048011 uM): 94 and 85 | SLC6A8 transport (Fig S2 curve point) ([1]; 0.144033 uM): 99.7 and 86.6 | SLC6A8 transport (Fig S2 curve point) ([1]; 0.432099 uM): 93.6 and 86.7 | SLC6A8 transport (Fig S2 curve point) ([1]; 1.2963 uM): 93.8 and 90.6 | SLC6A8 transport (Fig S2 curve point) ([1]; 3.88889 uM): 97.6 and 89.5 | SLC6A8 transport (Fig S2 curve point) ([1]; 11.6667 uM): 90.1 and 92.7 | SLC6A8 transport (Fig S2 curve point) ([1]; 35 uM): 95.9 and 86.1 | inhibition of SLC6A8 ([1]; concentrations up to 35 μM): did not inhibit | 24 hour Phe excretion, mean ± SD ([2]; MAD day 14, 75 mg BID): 89 ± 34 mg | Phe excreted from 0–8 hours, mean ± SD ([2]; MAD day 14, 75 mg BID): 32 ± 20 mg | urine Phe excreted from 8–24 hours, mean ± SD ([2]; MAD day 14, 75 mg BID): 56 ± 19 mg | 24 hour Phe excretion, mean ± SD ([2]; MAD day 14, 150 mg QD): 72 ± 18 mg | Phe excreted from 0–8 hours, mean ± SD ([2]; MAD day 14, 150 mg QD): 53 ± 16 mg | urine Phe excreted from 8–24 hours, mean ± SD ([2]; MAD day 14, 150 mg QD): 20 ± 11 mg | Phe excreted in urine over a 24 hour period, mean ± SD ([2]; SAD 170 mg): 142 ± 30 mg | increase in 24 hour urinary Phe vs placebo ([2]; SAD 170 mg): approximately 14 fold | glutamine excreted in urine, mean ± SD ([2]; SAD 170 mg, Supplemental Figure 6): 1,904 ± 541 mg
